Laboratory results taken from paper PMC12469358, “Synthesis of novel phenoxyacetohydrazide compounds and evaluation therapeutic potential exhibit as anti-inflammatory and anti-angiogenic” (PLOS One, 2025).
Converted amounts (≈) assume the structure as drawn. “Also recorded” adds a separate entry of the source. Read-outs that look alike come from different tables or passages of the source. Each block holds one molecule with its values, some of them ahead of it.

Legend:
[1] = test system: human red blood cell (HRBC) membrane; assay: Human red blood cell (HRBC) membrane stabilization assay; assay type: cell-based; conditions: for IC50: Homo sapiens, Erythrocyte
Protocol: The human red blood cell (HRBC) membrane stabilization method was employed to evaluate the anti-inflammatory activity of the compounds, as previously described. For test the in vitro anti-inflammatory activity of synthesized compounds (6e-h), blood samples were collected from healthy volunteers who had not taken NSAIDs for 14 days. The blood was mixed with an equal volume of sterilized Alsever’s solution, centrifuged at 3000 rpm, and the packed cells were washed with isotonic saline (0.9% w/v NaCl). A 10% cell suspension was then prepared using isotonic saline. The test compounds were dissolved in DMSO to prepare solutions at concentrations of 50, 100, 150, 200, and 250 μg/ml. For each concentration, a mixture containing 1 ml of phosphate buffer, 2 ml of hypotonic saline, and 0.5 ml of the HRBC suspension was prepared. The samples were incubated at 37°C for 30 minutes and centrifuged at 3000 rpm for 20 minutes. The hemoglobin content in the supernatant was determined spectrophotometrically at 560 nm. Indomethacin at the same concentrations (50–250 μg/ml) was used as the reference standard, and a control sample was prepared without the test compounds. The percentage hemolysis was calculated by considering the hemolysis in the control group as 100%. The percentage of HRBC membrane stabilization or protection was determined using the following formula:
percent protection=100−((OD of drug treated sample/OD of control) ×100).

[2] = test system: carrageenan-induced paw edema; assay: Carrageenan-induced paw edema; assay type: in vivo; conditions: rat, 6e 25 mg/kg, 5 h after carrageenan injection
Description: Female Swiss albino rats were selected for the study to evaluate the anti-inflammatory effects of compound 6e against carrageenan-induced paw edema. The animals were divided randomly into four groups, with each group consisting of six experimental animals (n = 6): • Group 1: Normal animals (untreated). • Group 2: Control group (saline-treated). • Group 3: Positive control group (indomethacin-treated). • Group 4: Animals treated with compound 6e. Prior to the experiment, animals in Group 2 were administered saline (5 mL/kg), animals in Group 3 received the positive control indomethacin (10 mg/kg), and animals in Group 4 were treated with compound 6e (25 mg/kg). All animals were left undisturbed in their respective cages for 2 hours.

[3] = test system: alkali burn-induced corneal neovascularization (CNV); assay: Alkali burn-induced corneal neovascularization; assay type: in vivo; conditions: alkali-burnt cornea
Protocol: Corneal neovascularization (CNV) was induced through alkali injury following a standard protocol with minor modifications. Swiss albino rats were first examined to ensure the absence of ophthalmic diseases before the alkali burn procedure. The animals were divided into three groups, each comprising six animals (n = 6 per group):
• Group I: Normal, treated with phosphate-buffered saline (PBS). • Group II: Control group, treated with 1 µg of recombinant VEGF (rVEGF). • Group III: Treated group, receiving rVEGF165 ([…]) and compound 6e (5 µg/ml).
An alkali burn was induced in the right eye of animals in Groups II and III after administering general anesthesia via intraperitoneal injection of ketamine (1 ml/kg) and chlorpromazine (1 ml/kg). A 3-mm diameter piece of Whatman filter paper soaked in […] of 1 mol/L NaOH was applied to the center of the cornea for 30 seconds, followed by irrigation of the treated cornea with 60 ml of normal saline.
Group II animals were subsequently treated with 1 µg of rVEGF applied to the right eye. The extent of CNV was quantified through photographic documentation 48 hours after the alkali burn and rVEGF treatment. […] The inhibitory effect of compound 6e on neovascularization was evaluated through photographic documentation 24 hours after treatment with compound 6e.

[4] = test system: rVEGF165-induced angiogenesis in CAM explants; assay: Ex vivo CAM assay; assay type: in vivo, chick
[5] = test system: rVEGF165-induced angiogenesis in chick chorioallantoic membrane (CAM); assay: In vivo chorioallantoic membrane (CAM) assay; conditions: for H&E staining: neovascular structures and inflammatory infiltration: Fig 23 legend, H&E staining of in vivo CAM
Protocol: The in vivo CAM assay was performed according to the standard protocol. All the eggs were wiped with 75% alcohol prior to incubation. Then the fertilized eggs were incubated at 37°C with 60% relative humidity. On the 11th day of incubation, all the eggs divided into three treatment groups contain minimum 6 eggs as mentioned below.
• Group I – Normal [PBS (Phosphate buffer saline) (10 mM Sodium phosphate mono basic+ 1.8 mM Sodium phosphate dibasic+140 mM sodium chloride, pH 7.4) alone] • Group II – Control [1µg of rVEGF165 alone] • Group III – 5 µg of 6e + 1 µg of rVEGF165.
A rectangular window was made in the egg shell and Whatman filter paper (3 mm diameter) containing with or without compound 6e (5 µg) was placed on the CAM and the window were sealed using sterile vegetable wrap. Windows were opened after 48h, i.e., on 13th day of incubation, observed by two independent observers and measured for change in the Micro Vessel Density (MVD) in the area beneath the cover slip and photographed using Sony steady shot DSC-W610 camera.

[6] = test system: tissue myeloperoxidase (MPO) activity in carrageenan-treated paws; assay: Tissue myeloperoxidase (MPO) activity assay; assay type: in vivo; conditions: rat, 6e 25 mg/kg, 4 hours after carrageenan
Protocol: Rats were treated either with or without positive control (indomethacin at 10 mg/kg body weight) or compound 6e (25 mg/kg body weight) 2 hours prior to the injection of carrageenan into the right hind paw. The activity of tissue myeloperoxidase (MPO) was assessed 4 hours post-carrageenan injection. Tissue samples were collected and placed in 0.75 ml of 80 mM phosphate-buffered saline (PBS, pH 5.4) containing 0.5% hexadecyltrimethylammonium bromide (HTAB). The samples were homogenized for 45 seconds at 0°C using a homogenizer. The homogenate was transferred into microfuge tubes, and the homogenizer vessel was rinsed with an additional 0.75 ml of HTAB in PBS. The wash was combined with the homogenate to yield a total sample volume of 1.5 ml, which was then centrifuged at 12,000 × g at 4°C for 15 minutes. For the MPO assay, 30 μl of the resulting supernatant was added to 96-well microtiter plates. To each well, 200 μl of a reaction mixture was added, consisting of 100 μl of 80 mM PBS (pH 5.4), 85 μl of 0.22 M PBS (pH 5.4), and 15 μl of 0.017% hydrogen peroxide. […] Enzyme activity was determined spectrophotometrically by measuring absorbance at 630 nm using a plate reader. Results were expressed as MPO activity per milligram of tissue (MOD/mg tissue). […] All samples were measured in six times (n = 6 technical replicates) for statistical accuracy.

[7] = Table 6 series 6a-h, read-out: HRBC membrane stabilization “IC50” Value
[8] = Table 7, 50-250 µg concentration series, comparison with indomethacin, read-out: “IC50”
[9] = Table 7, 50-250 µg concentration series, comparison with indomethacin

SMILES: O=C(CCCOc1ccc(Br)cc1)NNC(=O)C1CN(Cc2ccccc2)CCO1 (centres unmarked) [6g, 4-Benzyl-N’-(4-(4-bromophenoxy)butanoyl)morpholine-2-carbohydrazide]
IC50 [1, 7]: 279 µg/mL (≈ 586 µM)

SMILES: COc1ccc2c(c1)c(CC(=O)O)c(C)n2C(=O)c1ccc(Cl)cc1 [Indomethacin, reference compound]
H&E staining: neovascular structures and inflammatory infiltration [5]: Moderate reduction in neovascular structures
% Inhibition ([1]; 50 µg): 33.10%
% Inhibition ([1]; 100 µg): 46.11%
% Inhibition ([1]; 150 µg): 53.99%
% Inhibition ([1]; 200 µg): 64.98%
% Inhibition ([1]; 250 µg): 76.94%
IC50 [1, 8]: 122 µg/mL (≈ 340 µM)
“IC50” [1, 9]: 122.01 µg/mL

SMILES: CC(C)c1ccc(OCC(=O)NNC(=O)C2CN(Cc3ccccc3)CCO2)c(C(C)C)c1 (centres unmarked) [6f, 4-Benzyl-N’-(2-(2,4-diisopropylphenoxy)acetyl)morpholine-2-carbohydrazide]
IC50 [1, 7]: 301 µg/mL (≈ 664 µM)

SMILES: O=C(COc1ccc(Br)cc1)NNC(=O)C1CN(Cc2ccccc2)CCO1 (centres unmarked) [6b, 4-Benzyl-N’-(2-(4-bromophenoxy)acetyl)morpholine-2-carbohydrazide]
IC50 [1, 7]: 222 µg/mL (≈ 495 µM)

The next lines start with results.

IC50 [1, 7]: 255 µg/mL (≈ 576 µM)
SMILES: O=C(CCCOc1cccc([N+](=O)[O-])c1)NNC(=O)C1CN(Cc2ccccc2)CCO1 (centres unmarked) [6h, 4-Benzyl-N’-(4-(3-nitrophenoxy)butanoyl)morpholine-2-carbohydrazide]

IC50 [1, 7]: 155 µg/mL (≈ 373 µM)
IC50 [1, 8]: 164 µg/mL (≈ 395 µM)
“IC50” [1, 9]: 165.988 µg/mL
SMILES: O=C(CCCOc1ccc(F)cc1)NNC(=O)C1CN(Cc2ccccc2)CCO1 (centres unmarked) [6e, 4-Benzyl-N’-(4-(4-fluorophenoxy)butanoyl)morpholine-2-carbohydrazide]
paw swelling ratio (percent increase of paw volume) [2]: statistically significant reduction in the paw swelling ratio; also recorded: significantly inhibited the ratio of paw swelling
total vessel length in the rat cornea [3]: diminution in the total vessel length; also recorded: reduction in total vessel length
corneal neovascularization (CNV) ([3]; rat, 6e 5 µg with rVEGF165 10 µg): significant decrease in CNV
VEGF-induced angiogenic response, ex vivo CAM ([4]; co-administration with rVEGF165): Marked suppression of new blood vessel formation; also recorded: effectively inhibited this VEGF-induced angiogenic response in a dose-dependent manner
Total vessel length of ex-vivo CAM ([4]; rVEGF165-induced increase, n = 6): significantly attenuated
rVEGF165-induced angiogenic response / neovascularization, in vivo CAM ([5]; 5 µg 6e + 1 µg rVEGF165, 48 h): inhibited this rVEGF165-induced angiogenic response in a dose-dependent manner; also recorded: Marked suppression of neovascularization
H&E staining: neovascular structures and inflammatory infiltration [5]: minimal inflammatory infiltration and absence of neovessel
Total vessel length of in vivo CAM ([5]; versus control, n = 6): A significant reduction in vessel length
% Inhibition ([1]; 50 µg): 28.88%
% Inhibition ([1]; 100 µg): 34.13%
% Inhibition ([1]; 150 µg): 42.02%
% Inhibition ([1]; 200 µg): 59.99%
% Inhibition ([1]; 250 µg): 67.86%
MPO activity in carrageenan-treated paws [6]: markedly prevented the elevation of MPO activity

IC50 [1, 7]: 289 µg/mL (≈ 754 µM)
SMILES: Cc1ccccc1OCC(=O)NNC(=O)C1CN(Cc2ccccc2)CCO1 (centres unmarked) [6c, 4-Benzyl-N’-(2-(o-tolyloxy)acetyl)morpholine-2-carbohydrazide]

IC50 [1, 7]: 311 µg/mL (≈ 770 µM)
SMILES: O=C(COc1ccc(Cl)cc1)NNC(=O)C1CN(Cc2ccccc2)CCO1 (centres unmarked) [6a, 4-Benzyl-N’-(2-(4-chlorophenoxy)acetyl)morpholine-2-carbohydrazide]

IC50 [1, 7]: 199 µg/mL (≈ 501 µM)
SMILES: Cc1ccc(OCC(=O)NNC(=O)C2CN(Cc3ccccc3)CCO2)c(C)c1 (centres unmarked) [6d, 4-Benzyl-N’-(2-(2,4-dimethylphenoxy)acetyl)morpholine-2-carbohydrazide]
